From US20120004244A1, “Bis Aromatic Compounds for Use as LTC4 Synthase Inhibitors” (BIOLIPOX AB, priority 2009, published 2012)

Target: T1, Recombinant human LTC4 synthase (Homo sapiens, UniProt Q16873)
T1 construct: made in house; host or cells: Pichia pastoris ('Piccia pastoralis' [sic])
T1 sequence (Q16873 1-150): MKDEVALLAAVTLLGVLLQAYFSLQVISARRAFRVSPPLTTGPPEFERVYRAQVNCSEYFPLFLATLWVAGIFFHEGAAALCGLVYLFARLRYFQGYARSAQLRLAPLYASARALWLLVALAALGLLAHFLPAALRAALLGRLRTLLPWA
Test: LTC4 synthase in vitro assay (LTA4 to LTC4, HTRF detection)
Type: biochemical
Settings: for inhibition at 10 µM: 5 min, total concentration of title compound in the assay 10 μM
Outline: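 Purified recombinant human LTC4 synthase expressed in Pichia (0.5 μg/mL total protein) was preincubated with inhibitor at 10 μM final for 10 min at room temperature in PBS pH 7.4 with 5 mM GSH. LTA4 was then added at 2.5 μM final, and after 5 min at room temperature LTC4 was detected by HTRF.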

| SMILES | IC50 | inhibition at 10 µM |
| --- | --- | --- |
| CN(c1ccc(Cl)cc1)c1ccc(C(=O)c2ccc(Oc3cccnc3)c(C(=O)O)c2)nc1 [1:24, 5-{5-[(4-Chlorophenyl)(methyl)amino]picolinoyl}-2-(3-pyridyloxy)benzoic acid] | 1140 nM | 86% |
| COc1ccc(C(=O)c2ccc(C(=O)c3ccc(N(C)c4ccc(Cl)cc4)cn3)cc2C(=O)O)cc1 [5:3, 5-{5-[(4-Chlorophenyl)(methyl)amino]picolinoyl}-2-(4-methoxybenzoyl)benzoic acid] | 50 nM |  |
| CN(c1ccc(Cl)cc1)c1ccc(C(=O)c2ccc(NC(=O)c3ccc(S(=O)(=O)N(C)C)cc3)c(C(=O)O)c2)nc1 [3:15, 5-{5-[(4-Chlorophenyl)(methyl)amino]picolinoyl}-2-(4-dimethylsulfamoyl-benzamido)benzoic acid] | 41 nM |  |
| O=C(c1ccc(Oc2ccccc2)c(C(=O)O)c1)c1ccc(N(CC2CC2)c2ccc(F)c(F)c2)cn1 [1:19, 5-{5-[(Cyclopropylmethyl)(3,4-difluorophenyl)amino]picolinoyl}-2-phenoxybenzoic acid] | 130 nM | 100% |
| COc1cccc(C(=O)Nc2ccc(C(=O)c3ccc(N(CC4CC4)c4ccc(Cl)cc4)cn3)cc2C(=O)O)c1 [3:23, 5-{5-[(4-Chlorophenyl)(cyclopropylmethyl)amino]picolinoyl}-2-(3-methoxy-benzamido)benzoic acid] | 33 nM |  |
| CSc1ccccc1Oc1ccc(C(=O)c2ccc(N(C)c3ccc(Cl)cc3)cn2)cc1C(=O)O [1:23, 5-{5-[(4-Chlorophenyl)(methyl)amino]picolinoyl}-2-(2-methylsulfanylphenoxy)benzoic acid] | 362 nM | 100% |
| O=C(c1ccc(Oc2ccccc2F)c(C(=O)O)c1)c1ccc(N(CC2CC2)c2ccc(Cl)cc2F)cn1 [1:34, 5-{5-[(4-Chloro-2-fluorophenyl)(cyclopropylmethyl)amino]picolinoyl}-2-(2-fluorophenoxy)benzoic acid] | 195 nM |  |
| CN(c1ccc(Cl)cc1)c1ccc(C(=O)c2ccc(NC3CCS(=O)(=O)CC3)c(C(=O)O)c2)nc1 [2:20, 5-{5-[(4-Chlorophenyl)(methyl)amino]picolinoyl}-2-(1,1-dioxotetrahydrothiopyran-4-ylamino)benzoic acid] | 658 nM |  |
| COc1ccc(C(=O)c2ccc(C(=O)c3ccc(N(CC4CC4)c4ccc(Cl)cc4)cn3)cc2C(=O)O)cc1 [5:4] | 29 nM |  |
| COc1cc(F)c(C(=O)Nc2ccc(C(=O)c3ccc(N(C)c4ccc(Cl)cc4)cn3)cc2C(=O)O)c(F)c1 [3:35, 5-{5-[(4-Chlorophenyl)(methyl)amino]picolinoyl}-2-(2,6-difluoro-4-methoxy-benzamido)benzoic acid] | 73 nM |  |
| CCN(c1ccc(C(C)(C)C)cc1)c1ccc(C(=O)c2ccc(Oc3ccccc3)c(C(=O)O)c2)nc1 [1:22, 5-{5-[(4-tert-Butylphenyl)(ethyl)amino]picolinoyl}-2-phenoxybenzoic acid] | 1240 nM | 99% |
| CCOc1ccc(C(=O)c2ccc(C(=O)c3ccc(N(C)c4ccc(Cl)cc4)cn3)cc2C(=O)O)cc1 [5:9, 5-{5-[(4-Chlorophenyl)(methyl)amino]picolinoyl}-2-(4-ethoxybenzoyl)benzoic acid] | 101 nM |  |
| COc1ccc(C(=O)Nc2ccc(C(=O)c3ccc(N(C)c4ccc(Cl)cc4)cn3)cc2C(=O)O)c(C)c1 [3:32, 5-{5-[(4-Chlorophenyl)(methyl)amino]picolinoyl}-2-(4-methoxy-2-methylbenz-amido)benzoic acid] | 42 nM |  |
| COc1ccc(C(=O)Nc2ccc(C(=O)c3ccc(N(C)c4ccc(Cl)cc4)cn3)cc2C(=O)O)cc1OC [3:26, 5-{5-[(4-Chlorophenyl)(methyl)amino]picolinoyl}-2-(3,4-dimethoxybenzamido)-benzoic acid] | 37 nM |  |
| CC1(CN(c2ccc(C(=O)c3ccc(Oc4ccccc4F)c(C(=O)O)c3)nc2)c2ccc(Cl)cc2F)COC1 [1:41, 5-{5-[(4-Chloro-2-fluorophenyl)-(3-methyloxetan-3-ylmethyl)amino]picolinoyl}-2-(2-fluorophenoxy)benzoic acid] | 1320 nM |  |
| O=C(c1ccc(Oc2ccccc2)c(C(=O)O)c1)c1ccc(N(CC2CC2)c2ccc(Cl)cc2)cn1 [1:4, 5-{5-[(4-Chlorophenyl)(cyclopropylmethyl)amino]picolinoyl}-2-phenoxybenzoic acid] | 62 nM | 100% |
| CN(c1ccc(Cl)cc1)c1ccc(C(=O)c2ccc(Oc3ccc(F)c(F)c3)c(C(=O)O)c2)nc1 [1:2, 5-{5-[(4-Chlorophenyl)(methyl)amino]picolinoyl}-2-(3,4-difluorophenoxy)benzoic acid] | 104 nM | 98% |
| CN(c1ccc(Cl)cc1)c1ccc(C(=O)c2ccc(NCc3ccc4c(c3)OCO4)c(C(=O)O)c2)nc1 [2:12, 5-{5-[(4-Chlorophenyl)(methyl)amino]picolinoyl}-2-(3,4-methylenedioxybenzylamino)benzoic acid] | 66 nM |  |
| O=C(c1ccc(Oc2ccc(Cl)c(Cl)c2)c(C(=O)O)c1)c1ccc(N(CC2CC2)c2ccc(Cl)cc2)cn1 [1:26, 5-{5-[(4-Chlorophenyl)(cyclopropylmethyl)amino]picolinoyl}-2-(3,4-dichlorophenoxy)benzoic acid] | 72 nM |  |
| O=C(c1ccc(Oc2ccccc2Oc2ccccc2F)c(C(=O)O)c1)c1ccc(N(CC2CC2)c2ccc(Cl)cc2)cn1 [1:46, 5-{5-[(4-Chlorophenyl)(cyclopropylmethyl)amino]picolinoyl}-2-[2-(2-fluorophenoxy)phenoxy]benzoic acid] | 40 nM |  |
| COc1cccc(C(=O)c2ccc(C(=O)c3ccc(N(C)c4ccc(Cl)cc4)cn3)cc2C(=O)O)c1 [5:7, 5-{5-[(4-Chlorophenyl)(methyl)amino]picolinoyl}-2-(3-methoxybenzoyl)benzoic acid] | 36 nM |  |
| CN(c1ccc(Cl)cc1)c1ccc(C(=O)c2ccc(NCc3ccccc3)c(C(=O)O)c2)nc1 [2:3, 2-Benzylamino-5-{5-[(4-chlorophenyl)(methyl)amino]picolinoyl}benzoic acid] | 92 nM |  |
| O=C(c1ccc(Oc2ccccc2)c(C(=O)O)c1)c1ccc(N(CC2CCC2)c2ccc(Cl)cc2)cn1 [1:5, 5-{5-[(4-Chlorophenyl)(cyclobutylmethyl)amino]picolinoyl}-2-phenoxybenzoic acid] | 70 nM | 100% |
| C#CCN(c1ccc(C(=O)c2ccc(Oc3ccccc3F)c(C(=O)O)c2)nc1)c1ccc(Cl)cc1F [1:33, 5-{5-[(4-Chloro-2-fluorophenyl)(2-propynyl)amino]picolinoyl}-2-(2-fluorophenoxy)benzoic acid] | 351 nM |  |
| O=C(c1ccc(Oc2ccccc2Oc2cccnc2)c(C(=O)O)c1)c1ccc(N(CC2CC2)c2ccc(Cl)cc2)cn1 [1:43, 5-{5-[(4-Chlorophenyl)(cyclopropylmethyl)amino]picolinoyl}-2-[2-(3-pyridyloxy)phenoxy]benzoic acid] | 61 nM |  |

Results, then the compound that gave them:

| IC50 | inhibition at 10 µM | SMILES |
| --- | --- | --- |
| 242 nM |  | CON=C(c1ccc(Oc2ccccc2)c(C(=O)O)c1)c1ccc(N(CC2CC2)c2ccc(Cl)cc2)cn1 (mixture of isomers) [Example 13, 5-({5-[(4-Chlorophenyl)(cyclopropylmethyl)amino]-2-pyridyl}(methoxyimino)-methyl)-2-phenoxybenzoic acid] |
| 104 nM |  | CN(c1ccc(Cl)cc1)c1ccc(C(=O)c2ccc(-n3nc(-c4ccccc4)cc3C(F)(F)F)c(C(=O)O)c2)nc1 [18:2, 5-{5-[(4-Chlorophenyl)(methyl)amino]picolinoyl}-2-(3-phenyl-5-trifluoro-methylpyrazol-1-yl)benzoic acid] |
| 126 nM |  | O=C(c1ccc(Oc2ccccc2)c(C(=O)O)c1)c1ccc(OCc2cccc(Br)c2)cn1 [11:8, 5-[5-(3-Bromobenzyloxy)picolinoyl]-2-phenoxybenzoic acid] |
| 931 nM |  | O=C(c1ccc(Oc2ccccc2)c(C(=O)O)c1)c1ccc(OCc2ccccc2C(F)(F)F)cn1 [11:7, 2-Phenoxy-5-[5-(2-trifluoromethylbenzyloxy)picolinoyl]benzoic acid] |
| 704 nM |  | CN(c1ccc(Cl)cc1)c1ccc(C(=O)c2ccc(-c3cccc(Cl)c3)c(C(=O)O)c2)nc1 [21:4, 3′-Chloro-4-{5-[(4-chlorophenyl)(methyl)amino]picolinoyl}biphenyl-2-carboxylic acid] |
| 90 nM |  | CCCCCCC(=O)c1ccc(C(=O)c2ccc(N(C)c3ccc(Cl)cc3)cn2)cc1C(=O)O [5:17, 5-{5-[(4-Chlorophenyl)(methyl)amino]picolinoyl}-2-heptanoylbenzoic acid] |
| 630 nM | 96% | CN(c1ccc(Cl)cc1)c1ccc(C(=O)c2ccc(Oc3ccc(F)c(F)c3)c(C(=O)O)c2)cn1 [6:2] |
| 154 nM | 97% | CN(c1ccc(Cl)cc1)c1cnc(C(=O)c2ccc(Oc3ccc(F)cc3)c(C(=O)O)c2)nc1 [10:1, 5-{5-[(4-Chlorophenyl)(methyl)amino]pyrimidine-2-carbonyl}-2-(4-fluorophenoxy)-benzoic acid] |
| 245 nM |  | CN(c1ccc(Cl)cc1)c1ccc(C(=O)c2ccc(C(=O)c3ccccc3C(F)(F)F)c(C(=O)O)c2)nc1 [5:29] |
| 297 nM |  | O=C(c1ccc(-n2nc(C(F)(F)F)cc2-c2ccccc2)c(C(=O)O)c1)c1ccc(N(CC2CC2)c2ccc(Cl)cc2)cn1 [18:1, 5-{5-[(4-Chlorophenyl)(cyclopropylmethyl)amino]picolinoyl}-2-(5-phenyl-3-trifluoro-methylpyrazol-1-yl)benzoic acid] |
| 752 nM |  | O=C(c1ccc(Oc2ccccc2)c(C(=O)O)c1)c1ccc(-c2ccc(Cl)cc2)cn1 [7:2, 5-[5-(4-Chlorophenyl)picolinoyl]-2-phenoxybenzoic acid] |
